Laboratory results reported in patent US5656452A, “NF-ATp, ' a T lymphocyte DNA-binding protein” (President and Fellows of Harvard College, priority 1993, dated 1997).

Experiments:
[1] = test system: Ar-5 T cells (NF-AT induction, IL-2 gene expression); assay: Induction of NF-AT and IL-2 gene expression in activated Ar-5 T cells; type: cell-based, murine; conditions: Ar-5 cells activated through T cell antigen receptor/CD3
Procedure: For preparation of nuclear extracts from activated T cells, cells were incubated for two hours with cross-linked anti-CD3ε monoclonal antibody (145-2C11, Kubo, R. T., Born, W., Kappler, J. W., Marrack, P., and Pigeon, M. (1989) J. Immunol. 142, 2736-2742) in the presence or absence of 1 μM CsA. Activation conditions and preparation of nuclear extracts was exactly as previously described (McCaffrey, P. G., Jain, J., Jamieson, C., Sen, R., and Rao, A. (1992) J. Biol. Chem. 267, 1864-1871). Protein determinations were done by the method of Bradford (Bradford, M. (1976) Anal. Biochem. 72,248-254), using bovine serum albumin as a standard.
To characterize the preexisting, DNA-binding component of NF-AT, we have used the murine IL-2 dependent T cell clone Ar-5. Activation of Ar-5 cells with monoclonal antibodies to the T cell antigen receptor or its associated CD3 complex causes the rapid appearance in the nucleus of several inducible transcription factor including NF-AT, which is followed by expression of the IL-2 gene and cell proliferation (Jamieson, C., McCaffrey, P. G., Rao, A., and Sen, R. (1991) J. Immunol. 147,416-420). […] We have previously established that unactivated Ar-5 cells contain a protein or proteins, extracted under hypotonic lysis conditions, that can bind in the EMSA to an oligonucleotide comprising the distal NF-AT sequence from the murine IL-2 promoter. […]

[2] = test system: NF-ATp dephosphorylation in Ar-5 T cell extracts; assay: Dephosphorylation of NF-ATp (apparent molecular weight by SDS-PAGE, renaturation, EMSA) in extracts of drug-treated Ar-5 T cells; type: cell-based, murine; conditions: prior treatment of T cells for 10 minutes with 1 μM CsA or 100 nM FK506 before lysis
Procedure: To prepare hypotonic extracts, cells were harvested by centrifugation, washed with phosphate buffered saline and resuspended to 10^8 cells/ml in buffer containing 7.5 mM Tris (pH 7.6), 2 mM PMSF, 1 mM MgCl2, 0.5 mM DTT, 0.25 mM leupeptin, 0.1 mM EDTA and 1 mg/ml aprotinin. The cells were lysed by quick-freezing in dry ice and rapid thawing in a room-temperaturewater bath, followed by centrifugation at 12,000 x g for 10 minutes. Where indicated, cells were treated before harvesting with 1 μM CsA (Sandoz Corp.) or 100 nM FK506 (Fujisawa Pharmaceutical) for 10 minutes at 37° C.
Hypotonic or nuclear extracts were boiled in SDS-PAGE sample buffer (65 mM Tris, pH 6.8, 2% SDS, 2% 2-mercaptoethanol, 10% glycerol, 0.01 mg/ml bromphenol blue) and fractionated on 3 mm thick SDS-polyacrylamide gels by standard methods (Laemmli, U. K. (1970) Nature 227, 680-685). Molecular weight standards (BioRad Laboratories) were also run on the same gel. After electrophoresis, the standards were cut off and separately stained. For recovery of proteins from the gels, slices (1 cm×0.5 cm) from wet, unfixed gels were crushed and eluted overnight in 50 mM Tris, pH 7.9, 1 mM DTT, 0.2 mM EDTA, 0.1 mM PMSF, 0.1 mg/ml BSA, 2.5% glycerol and 0.1% SDS (Baeuerle, P., and Baltimore, D. (1988) Cell 53, 211-217). […]

## C=CC[C@@H]1/C=C(\C)C[C@H](C)C[C@H](OC)[C@H]2O[C@@](O)(C(=O)C(=O)N3CCCC[C@H]3C(=O)O[C@H](/C(C)=C/[C@@H]3CC[C@@H](O)[C@H](OC)C3)[C@H](C)[C@@H](O)CC1=O)[C@H](C)C[C@@H]2OC [FK506]
[1]
  Induction of NF-AT and subsequent IL-2 gene expression: completely blocked
[2]
  Dephosphorylation of NF-ATp in cell extracts: inhibited
